Patent publication US8148424B2, “Tocopherols, tocotrienols, other chroman and side chain derivatives and uses thereof” (Research Development Foundation, priority 1998, dated 2012)
In brackets after ≈: the same amount, converted by molar mass.

Assays:
[1] = system: human cancer cells from a wide variety of cell lineages; experiment: Apoptosis induction in a battery of tumor cells; assay type: cell-based; settings: breast, prostate, leukemia/lymphoid, cervical, ovarian, endometrial, colon, lung cell lines
Procedure, shortened: (§1)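 Read-out: percent apoptotic cells, scored by microscopy as condensed/fragmented chromatin (DAPI, 2 μg/ml, 15 min, 37° C) or TUNEL-positive fragmented DNA. Compounds tested at 0.01, 0.1, 1, 5, 10 and 20 μg/mL for 1–3 days on overnight-adhered cells.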

[2] = system: Fas/Fas ligand signaling pathway; experiment: Fas/Fas ligand apoptotic signaling in Fas resistant tumor cells; assay type: cell-based, human
Excerpt: Activated Fas/Fas ligand signaling may lead to rapid cell death by apoptosis. Thus, for tumor cells to escape death by Fas/Fas ligand, they must inactivate this most important apoptotic pathway. The mechanism for inactivation of the Fas/Fas ligand signaling pathway by tumor cells varies; however, many tumor cells down regulate the expression of Fas receptor and Fas ligand on their membranes.

[3] = Solubility in ethanol (stock solution); assay type: physicochemical; settings: in 5 mls of 100% ethanol, vortex at 37° C.
Excerpt: This is the maximum amount of compound 1 that will go into solution.

ME-180 = experiment: Bioassay for apoptosis (apoptotic EC50); assay type: cell-based, human; settings: ME-180; unit not given; in µg/mL
Procedure, shortened: (§2)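 Apoptosis was quantified microscopically after 1, 2 or 3 days of exposure to test compounds (0.01–20 μg/mL). Cells showing condensed or fragmented nuclear chromatin on DAPI staining, or fragmented DNA by TUNEL, counted as apoptotic.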

MDA-MB-435 = experiment: Bioassay for apoptosis (apoptotic EC50); assay type: cell-based, human; settings: MDA-MB-435; unit not given; in µg/mL
Procedure, shortened: as §2

HL-60 = experiment: Bioassay for apoptosis (apoptotic EC50); assay type: cell-based, human; settings: HL-60; unit not given; in µg/mL
Procedure, shortened: as §2

RL-95-2 = experiment: Bioassay for apoptosis (apoptotic EC50); assay type: cell-based, human; settings: Homo sapiens, RL95-2, RL-95-2; unit inferred
Procedure, shortened: as §2

MCF-7 = experiment: Bioassay for apoptosis (apoptotic EC50); assay type: cell-based, human; settings: MCF-7; unit not given; in µg/mL
Procedure, shortened: as §2

DU-145 = experiment: Bioassay for apoptosis (apoptotic EC50); assay type: cell-based, human; settings: Homo sapiens, unit inferred
Procedure, shortened: as §1

LnCaP = experiment: Bioassay for apoptosis (apoptotic EC50); assay type: cell-based, human; settings: Homo sapiens, unit inferred
Procedure, shortened: as §2

DLD-1 = experiment: Bioassay for apoptosis (apoptotic EC50); assay type: cell-based, human; settings: Homo sapiens, unit inferred
Procedure, shortened: as §1

A-549 = experiment: Bioassay for apoptosis (apoptotic EC50); assay type: cell-based, human; settings: Homo sapiens, A549, unit inferred
Procedure, shortened: as §1

C-170 = experiment: Bioassay for apoptosis (apoptotic EC50); assay type: cell-based, human; settings: Homo sapiens, C170, C-170; unit inferred
Procedure, shortened: as §2

PC-3 = experiment: Bioassay for apoptosis (apoptotic EC50); assay type: cell-based, human; settings: PC-3; unit not given; in µg/mL
Procedure, shortened: as §2

HT-29 = experiment: Bioassay for apoptosis (apoptotic EC50); assay type: cell-based, human; settings: Homo sapiens, unit inferred
Procedure, shortened: as §1

Jurkat = experiment: Bioassay for apoptosis (apoptotic EC50); assay type: cell-based, human; settings: Homo sapiens, unit inferred
Procedure, shortened: as §1

MDA-MB-231 = experiment: Bioassay for apoptosis (apoptotic EC50); assay type: cell-based, human; settings: MDA-MB-231; unit not given; in µg/mL
Procedure, shortened: as §2

PREC = experiment: Bioassay for apoptosis (apoptotic EC50); assay type: cell-based; settings: Homo sapiens, unit inferred
Procedure, shortened: as §1

HMEC = experiment: Bioassay for apoptosis (apoptotic EC50); assay type: cell-based; settings: Homo sapiens, unit inferred
Procedure, shortened: as §1

MCF-10A = experiment: Bioassay for apoptosis (apoptotic EC50); assay type: cell-based; settings: Homo sapiens, unit inferred
Procedure, shortened: as §2

T47D = experiment: Bioassay for apoptosis (apoptotic EC50); assay type: cell-based; settings: Homo sapiens, unit inferred
Procedure, shortened: as §1

[4] = system: P21 in MDA-MB-435 human breast cancer cells; experiment: P21 expression; assay type: cell-based
Excerpt: The mechanisms of growth inhibition by DNA synthesis arrest, cell cycle arrest and by induction of cellular differentiation have not been characterized as fully as the mechanism of growth inhibition by apoptosis. […] Tumor cells cultured with the compounds disclosed herein are growth inhibited in the G1 cell cycle phase, undergo morphological changes and express milk lipids, an indication that the cell cycle blocked cells have undergone differentiation.

[5] = system: Fas ligand on the membrane of LNCaP prostate cells; experiment: Fas ligand expression on cell membrane; assay type: cell-based
[6] = Description: Prior to conducting the preclinical chemotherapeutic studies, compound 1 is assayed in non-tumor Balb/c female mice in an effort to establish the maximum tolerated dose. Compound 1 is dissolved in 100% ethanol to establish a stock solution (2 grams of compound 1 in 5 mls of 100% ethanol) and diluted in peanut oil (non vitamin E supplemented) to yield 20, 10, and 5 mg/0.1 ml. RRR-α-tocopherol succinate (VES; the succinate moiety is attached to RRR-α-tocopherol via an ester linkage) was solubilized and diluted as described above to yield 20 mg/0.1 ml/gavage, serving as an additional control. A total of 30 Balb/c female mice were placed into 6 groups (5 mice/group) and supplemented by gavage with compound 1 daily for a total of 23 days. Group 1 mice were non treated and served a s control; group 2 mice were the vehicle control group and received 0.1 ml of vehicle (ethanol+peanut oil equivalent to treatment groups)/mouse/day for a total of 23 days, […] of VES daily for a total of 23 days. Treatment groups […] were gavaged daily for 23 days with 5, 10, and 20 mgs of compound 1.

Cc1c(C)c2c(c(C)c1OCC(=O)O)CC[C@@](C)(CCC[C@H](C)CCC[C@H](C)CCCC(C)C)O2 [Compound 1, 2,5,7,8-tetramethyl-(2R-(4R,8R,12-trimethyltridecyl)chroman-6-yloxy)acetic acid]
growth inhibitory (apoptotic inducing) properties specific for human cancer cells [1]: effective | Fas receptor localisation ([2]; Fas signaling resistant human breast cancer cells): transported from the cytoplasm to the membrane | Fas/Fas ligand sensitivity of resistant tumor cells ([2]; Fas/Fas ligand resistant tumor cells): induce Fas/Fas ligand resistant tumor cells to become Fas/Fas ligand sensitive | anti-Fas triggered apoptosis, co-treatment ([2]; human breast and prostate cancer cells, co-treated versus separately): synergistic | maximum amount that will go into solution [3]: 2 grams | apoptotic EC50 (ME-180): 1-5 | apoptotic EC50 (MDA-MB-435): 5-10 | apoptotic EC50 (HL-60): 5-10 | EC50 (RL-95-2): 10 to 20 µg/mL (≈ 20.5 to 40.9 µM) | apoptotic EC50 (MCF-7): 5-10 | EC50 (DU-145): 5 to 10 µg/mL (≈ 10.2 to 20.5 µM) | EC50 (LnCaP): 5 to 10 µg/mL (≈ 10.2 to 20.5 µM) | EC50 (DLD-1): 10 to 20 µg/mL (≈ 20.5 to 40.9 µM) | EC50 (A-549): 10 to 20 µg/mL (≈ 20.5 to 40.9 µM) | EC50 (C-170): 10 to 20 µg/mL (≈ 20.5 to 40.9 µM) | apoptotic EC50 (PC-3): 5-10 | EC50 (HT-29): 10 to 20 µg/mL (≈ 20.5 to 40.9 µM) | EC50 (Jurkat): 10 to 20 µg/mL (≈ 20.5 to 40.9 µM) | apoptotic EC50 (MDA-MB-231): 5-10 | EC50 (PREC): > 20 µg/mL | EC50 (HMEC): > 20 µg/mL | EC50 (MCF-10A): > 20 µg/mL | EC50 (T47D): > 20 µg/mL | P21 mRNA and protein [4]: up-regulated | expression of Fas ligand on the membrane [5]: enhance the expression of Fas ligand | toxicity upon autopsy ([6]; at completion of the MTD studies): no evidence of toxicity | weights of the mice versus VES treated, untreated and vehicle treated controls ([6]; mouse, in vivo): no significant difference
